In US20230265157A1, “MHC MULTIMER EXPRESSION CONSTRUCTS AND USES THEREOF” (priority 2020, published 2023):

Tested on: WT-1-specific T cells
Assay: Specific cell staining / titration on WT-1-specific T cells
Format: cell-based
Conditions: untreated, digested and WT-1-exchanged tetramers at 1 nM and 20 nM
Text: The amino acid sequence of the Y84A HLA alpha chain is shown in SEQ ID NO: 321. This mutation is known in the art to stabilize binding of the tethered peptide by reducing steric conflict with the peptide linker.

Y84A variant of the A*02:01 tetramer
staining of NLV- and WT-1-specific CD8+ T cells: converting NLV reactivity to WT-1 reactivity
